According to patent publication US9387218B2, “Composition for the treatment of inflammatory and immune disorders” (EAGLEPHARMA PTY LTD, priority 2012, dated 2016):

Tests used:
osteoarthritis = conditions: literature study; cited from earlier work
[1] = tested on: seasonal allergic rhinitis; conditions: oral, 2600 mg to 5200 mg per day; cited from earlier work
murine macrophages = conditions: in vitro; cited from earlier work
psoriasis = assay: Summary of treatments: Psoriasis; assay type: in vivo, human; set-up: key: The + values in the table represent a qualitative assessment of the treatment of symptoms in the patient groups tests; ++: The + values in the table represent a qualitative assessment of the treatment of symptoms in the patient groups tests; +++: The + values in the table represent a qualitative assessment of the treatment of symptoms in the patient groups tests; ++++: The + values in the table represent a qualitative assessment of the treatment of symptoms in the patient groups tests; +++++: 5+ indicating the greatest improvement in symptoms; conditions: patient groups
Solar Keratosis = assay: Summary of treatments: Solar Keratosis; assay type: in vivo, human; set-up: key: The + values in the table represent a qualitative assessment of the treatment of symptoms in the patient groups tests; ++: The + values in the table represent a qualitative assessment of the treatment of symptoms in the patient groups tests; +++: The + values in the table represent a qualitative assessment of the treatment of symptoms in the patient groups tests; ++++: The + values in the table represent a qualitative assessment of the treatment of symptoms in the patient groups tests; +++++: 5+ indicating the greatest improvement in symptoms; conditions: patient groups
chondrocytes = conditions: in vitro; cited from earlier work
TNF-α production = conditions: in vitro; cited from earlier work

Q: With `CS(C)(=O)=O` [MSM, Methylsulphonylmethane] as the molecule, how does the effect in osteoarthritis (osteoarthritis) read?
A: analgesic and anti-inflammatory effect

Q: What about the “symptoms associated with seasonal allergic rhinitis” value [1] of the same molecule?
A: may reduce symptoms

Q: What about the “effect in murine macrophages (release of pro-inflammatory cytokines)” value (murine macrophages) of the same molecule?
A: anti-inflammatory effect

Q: Which results are given for `NC(=O)c1cccnc1` [Nicotinamide oral (NC), nicotinamide]?
A: qualitative assessment of the treatment of symptoms: Psoriasis (psoriasis): +; qualitative assessment of the treatment of symptoms: Solar Keratosis (Solar Keratosis): +

Q: Which effect in osteoarthritis (osteoarthritis) does the source give for `N[C@H]1C(O)O[C@H](CO)[C@@H](O)[C@@H]1O` (some centres unmarked) [glucosamine] here?
A: may improve the symptoms

Q: And the “synthesis of proinflammatory mediators in chondrocytes” value (chondrocytes)?
A: inhibits the synthesis of proinflammatory mediators

Q: Which “immunomodulatory action, possibly by inhibiting TNF-α production” value (TNF-α production) does the source give for `NCC(=O)O` [glycine] here?
A: immunomodulatory action
